In PMC13626384 (Journal of medicinal chemistry, 2025):
Read-outs that look alike come from different tables or passages of the source.

Experiments:
D283-med cell line = experiment: Cytotoxicity against D283-med cells; format: cell-based, human
SF188 cell line = experiment: Cytotoxicity against SF188 cells; format: cell-based, human
[1] = PAMPA-BBB permeability assay
H460 cell line = experiment: Cytotoxicity against H460 cells; format: cell-based; conditions: read-out: H460 IC50; non-small cell lung cancer cell line
[2] = Homo sapiens, D283 Med, read-out: D283-med IC50, medulloblastoma cell line
[3] = Homo sapiens, SF-188, read-out: SF188 IC50, glioblastoma cell line
[4] = read-out: D283-med IC50, medulloblastoma cell line
[5] = read-out: SF188 IC50, glioblastoma cell line

Row | SMILES | IC50 (D283-med cell line; [4]) [nM] | IC50 (SF188 cell line; [5]) [nM] | IC50 (H460 cell line) [nM] | also measured
1 | CCCCCC(=O)N[C@H](C(=O)NC(CSc1c(F)c(F)c(F)c(F)c1F)C(=O)N[C@@H](CC(C)C)C(=O)[C@@]1(C)CO1)C(C)C (stereo in doubt) [Compound 1, N-((S)-3-Methyl-1-(((S)-1-(((S)-4-methyl-1-((R)-2-methyloxiran-2-yl)-1-oxopentan-2-yl)amino)-1-oxo-3-((perfluorophenyl)thio)propan-2-yl)amino)-1-oxobutan-2-yl)hexanamide] |  |  |  | IC50 (D283-med cell line; [2]): 236 ± 27 nM; IC50 (SF188 cell line; [3]): 143 ± 18 nM; Mean Permeability ([1]; PAMPA-BBB): 0.63 10^−6 cm/sec
2 | CC(C)C[C@H](NC(=O)C(CSc1c(F)c(F)c(F)c(F)c1F)NC(=O)[C@@H](NC(=O)Cc1c(F)c(F)c(F)c(F)c1F)C(C)C)C(=O)[C@@]1(C)CO1 (stereo in doubt) [Compound 3, (S)-3-Methyl-N-((S)-1-(((S)-4-methyl-1-((R)-2-methyloxiran-2-yl)-1-oxopentan-2-yl)amino)-1-oxo-3-((perfluorophenyl)thio)propan-2-yl)-2-(2-(perfluorophenyl)acetamido)butanamide] |  |  |  | IC50 (D283-med cell line; [2]): 102 ± 7 nM; IC50 (SF188 cell line; [3]): 213 ± 10 nM
3 | CCCCCC(=O)N[C@H](C(=O)N[C@@H](CCS(C)(=O)=O)C(=O)N[C@@H](CC(C)C)C(=O)[C@@]1(C)CO1)C(C)C [Carmaphycin B, reference compound] | 13 ± 2 | 19 ± 2 | 111 ± 30 | 
4 | CC(C)C[C@H](NC(=O)[C@@H](CSc1c(F)c(F)c(F)c(F)c1F)NC(=O)Cc1c(F)c(F)c(F)c(F)c1F)C(=O)[C@@]1(C)CO1 [Compound 5, (S)-N-((S)-4-Methyl-1-((R)-2-methyloxiran-2-yl)-1-oxopentan-2-yl)-2-(2-(perfluorophenyl)acetamido)-3-((perfluorophenyl)thio)propenamide] | > 10000 | > 10000 | > 10000 | 
5 | CC(C)C[C@H](NC(=O)[C@@H](CSc1c(F)c(F)c(F)c(F)c1F)NC(=O)c1cc(Cl)ccc1Cl)C(=O)[C@@]1(C)CO1 [Compound 6, 2,5-Dichloro-N-((S)-1-(((S)-4-methyl-1-((R)-2-methyloxiran-2-yl)-1-oxopentan-2-yl)amino)-1-oxo-3-((perfluorophenyl)thio)propan-2-yl)benzamide] |  |  |  | IC50 (D283-med cell line; [2]): > 10000 nM; IC50 (SF188 cell line; [3]): 4080 ± 770 nM
6 | CC(C)C[C@H](NC(=O)CNC(=O)Cc1c(F)c(F)c(F)c(F)c1F)C(=O)[C@@]1(C)CO1 [Compound 7, N-((S)-4-Methyl-1-((R)-2-methyloxiran-2-yl)-1-oxopentan-2-yl)-2-(2-(perfluorophenyl)acetamido)acetamide] |  |  |  | IC50 (D283-med cell line; [2]): > 10000 nM; IC50 (SF188 cell line; [3]): > 10000 nM
7 | CC(C)C[C@H](NC(=O)CNC(=O)c1cc(Cl)ccc1Cl)C(=O)[C@@]1(C)CO1 [Compound 8, 2,5-Dichloro-N-(2-(((S)-4-methyl-1-((R)-2-methyloxiran-2-yl)-1-oxopentan-2-yl)amino)-2-oxoethyl)benzamide] |  |  |  | IC50 (D283-med cell line; [2]): 3700 ± 270 nM; IC50 (SF188 cell line; [3]): 532 ± 23 nM
8 | CC(C)C[C@H](NC(=O)[C@@H]1Cc2c(F)c(F)c(c(F)c2F)Sc2ccc(cc2)CC(=O)N[C@@H](C(C)C)C(=O)N1)C(=O)[C@@]1(C)CO1 [Compound 9, (5S,8S)-3^2,3^3,3^5,3^6-Tetrafluoro-8-isopropyl-N-((S)-4-methyl-1-((R)-2-methyloxiran-2-yl)-1-oxopentan-2-yl)-7,10-dioxo-2-thia-6,9-diaza-1,3(1,4)-dibenzenacycloundecaphane-5-carboxamide] |  | 87 | 754 | 
9 | CC(C)C[C@H](NC(=O)[C@@H]1Cc2c(F)c(F)c(c(F)c2F)Sc2cccc(c2)CC(=O)N[C@@H](C(C)(C)C)C(=O)N1)C(=O)[C@@]1(C)CO1 [Compound 12, (5S,8S)-8-(Tert-butyl)-3^2,3^3,3^5,3^6-tetrafluoro-N-((S)-4-methyl-1-((R)-2-methyloxiran-2-yl)-1-oxopentan-2-yl)-7,10-dioxo-2-thia-6,9-diaza-1(1,3),3(1,4)-dibenzenacycloundecaphane-5-carboxamide] | 432 ± 74 | 507 ± 134 | 2470 | 
10 | CC(C)C[C@H](NC(=O)[C@@H]1Cc2c(F)c(F)c(c(F)c2F)Sc2cccc(c2)CC(=O)N2C[C@H]3[C@@H]([C@H]2C(=O)N1)C3(C)C)C(=O)[C@@]1(C)CO1 [Compound 13, (61S,64S,65R,9S)-1^2,1^3,1^5,1^6-Tetrafluoro-6^6,6^6-dimethyl-N-((S)-4-methyl-1-((R)-2-methyloxiran-2-yl)-1-oxopentan-2-yl)-5,7-dioxo-2-thia-6^3,8-diaza-6(3,4)-bicyclo[3.1.0]hexana-1(1,4),3(1,3)-dibenzenacyclodecaphane-9-carboxamide] | > 15000 | > 15000 | > 15000 | 
11 | CC(C)C[C@H](NC(=O)[C@@H]1Cc2c(F)c(F)c(c(F)c2F)Sc2cccc(c2)CC(=O)N[C@H](C(C)C)CC(=O)N1)C(=O)[C@@]1(C)CO1 [Compound 16, (5S,9S)-3^2,3^3,3^5,3^6-Tetrafluoro-9-isopropyl-N-((S)-4-methyl-1-((R)-2-methyloxiran-2-yl)-1-oxopentan-2-yl)-7,11-dioxo-2-thia-6,10-diaza-1(1,3),3(1,4)-dibenzenacyclododecaphane-5-carboxamide] | 6090 | > 15000 | > 15000 | 
12 | CC(C)C[C@H](NC(=O)[C@@H]1Cc2c(F)c(F)c(c(F)c2F)Sc2cccc(c2)CC(=O)N[C@@H](C(C)C)CC(=O)N1)C(=O)[C@@]1(C)CO1 [Compound 17, (5S,9R)-3^2,3^3,3^5,3^6-Tetrafluoro-9-isopropyl-N-((S)-4-methyl-1-((R)-2-methyloxiran-2-yl)-1-oxopentan-2-yl)-7,11-dioxo-2-thia-6,10-diaza-1(1,3),3(1,4)-dibenzenacyclododecaphane-5-carboxamide] | 1800 | 2460 | 5380 | 
13 | CC(C)C[C@H](NC(=O)[C@@H]1Cc2c(F)c(F)c(c(F)c2F)Sc2cccc(c2)CC(=O)N(C)[C@@H](C(C)C)C(=O)N1)C(=O)[C@@]1(C)CO1 [Compound 19, (5S,8S)-3^2,3^3,3^5,3^6-Tetrafluoro-8-isopropyl-9-methyl-N-((S)-4-methyl-1-((R)-2-methyloxiran-2-yl)-1-oxopentan-2-yl)-7,10-dioxo-2-thia-6,9-diaza-1(1,3),3(1,4)-dibenzenacycloundecaphane-5-carboxamide] | 10800 | 12300 | > 15000 | 
14 | CC(C)C[C@H](NC(=O)[C@@H]1Cc2c(F)c(F)c(c(F)c2F)Sc2cccc(c2)CC(=O)NC(C)(C)C(=O)N1)C(=O)[C@@]1(C)CO1 [Compound 20, (S)-3^2,3^3,3^5,3^6-Tetrafluoro-8,8-dimethyl-N-((S)-4-methyl-1-((R)-2-methyloxiran-2-yl)-1-oxopentan-2-yl)-7,10-dioxo-2-thia-6,9-diaza-1(1,3),3(1,4)-dibenzenacycloundecaphane-5-carboxamide] | 662 ± 44 | 611 ± 85 | 828 ± 57 | 
15 | CC(C)C[C@H](NC(=O)[C@@H]1Cc2c(F)c(F)c(c(F)c2F)Sc2cccc(c2)CC(=O)NCC(=O)N1)C(=O)[C@@]1(C)CO1 [Compound 21, (S)-32,33,35,36-Tetrafluoro-N-((S)-4-methyl-1-((R)-2-methyloxiran-2-yl)-1-oxopentan-2-yl)-7,10-dioxo-2-thia-6,9-diaza-1(1,3),3(1,4)-dibenzenacycloundecaphane-5-carboxamide] | 5000 | > 15000 | > 15000 | 
16 | CC(C)C[C@H](NC(=O)[C@@H]1Cc2c(F)c(F)c(c(F)c2F)[S+]([O-])c2cccc(c2)CC(=O)N[C@@H](C(C)(C)O)C(=O)N1)C(=O)[C@@]1(C)CO1 (stereo partly drawn) [Compound 23, (5S,8S)-3^2,3^3,3^5,3^6-Tetrafluoro-8-(2-hydroxypropan-2-yl)-N-((S)-4-methyl-1-((R)-2-methyloxiran-2-yl)-1-oxopentan-2-yl)-7,10-dioxo-2-thia-6,9-diaza-1(1,3),3(1,4)-dibenzenacycloundecaphane-5-carboxamide 2-oxide] | 176 ± 2 | 205 ± 21 | 1640 ± 87 | 
17 | CC(C)CC(NC(=O)C1Cc2c(F)c(F)c(c(F)c2F)S(=O)(=O)c2cccc(c2)CC(=O)NC(C(C)C)CC(=O)N1)C(=O)C1(C)CO1 [Compound 25, (5S,9S)-3^2,3^3,3^5,3^6-Tetrafluoro-9-isopropyl-N-((S)-4-methyl-1-((R)-2-methyloxiran-2-yl)-1-oxopentan-2-yl)-7,11-dioxo-2-thia-6,10-diaza-1(1,3),3(1,4)-dibenzenacyclododecaphane-5-carboxamide 2,2-dioxide] | > 15000 | > 15000 | > 15000 | 
18 | CC(C)C[C@H](NC(=O)[C@@H]1Cc2c(F)c(F)c(c(F)c2F)S(=O)(=O)c2cccc(c2)CC(=O)N[C@@H](C(C)C)CC(=O)N1)C(=O)[C@@]1(C)CO1 [Compound 26, (5S,9R)-3^2,3^3,3^5,3^6-Tetrafluoro-9-isopropyl-N-((S)-4-methyl-1-((R)-2-methyloxiran-2-yl)-1-oxopentan-2-yl)-7,11-dioxo-2-thia-6,10-diaza-1(1,3),3(1,4)-dibenzenacyclododecaphane-5-carboxamide 2,2-dioxide] | 472 ± 36 | 673 ± 50 | 2360 | 
19 | CC(=O)O[C@@H](C)[C@@H]1NC(=O)Cc2cccc(c2)S(=O)(=O)c2c(F)c(F)c(c(F)c2F)C[C@@H](C(=O)N[C@@H](CC(C)C)C(=O)[C@@]2(C)CO2)NC1=O [Compound 28, (S)-1-((5S,8S)-3^2,3^3,3^5,3^6-Tetrafluoro-5-(((S)-4-methyl-1-((R)-2-methyloxiran-2-yl)-1-oxopentan-2-yl)carbamoyl)-2,2-dioxido-7,10-dioxo-2-thia-6,9-diaza-1(1,3),3(1,4)-dibenzenacycloundecaphane-8-yl)ethyl acetate] | 44 ± 6 | 148 ± 35 | 549 ± 21 | 
20 | Cc1ncc2n1-c1ccc(Cl)cc1C(c1ccccc1F)=NC2 [Midazolam, reference compound] |  |  |  | Papp ([1]; PAMPA): 6.8 ×10⁻⁶ cm/s; recovery ([1]; PAMPA): 84%
21 | Cn1c(=O)c2[nH]cnc2n(C)c1=O [Theophylline, reference compound] |  |  |  | recovery ([1]; PAMPA, % Recovery, PAMPA-BBB): 96%
